Reference: patent EP2252154B1, “METHOD FOR MINIMIZING THE CYTOTOXICITY OF THE EFFECTIVE AGENT IN A COMPOSITION THAT IS ADMINISTERED TO A MAMMAL OR GETS INTO CONTACT WITH A MAMMAL” (Oy Granula AB LTD, priority 2008, dated 2009)
≈ marks a conversion by molar mass, not a printed value. Like-named read-outs stand apart in the source and are kept apart here.

Assays:
[1] = tested on: human keratinocyte cells
Experimental: The composition of the individual compounds included in the compound mixture contained by the samples was in accordance with Table 3B. The cytotoxicity of the sample extracts and powders for human keratinocyte cells was measured. The employed measure of cytotoxicity was the total protein quantity created by the samples, when the samples were incubated together with human keratinocyte cells for a certain incubation time (24 h). For each sample, there was searched a limit value (EC20), by which 20% of the cultivated cells died.

[2] = Antioxidative capacity: inhibition of the peroxidation of lipids; type: biochemical; details: pure polyphenols isolated from wood materials
[3] = Peroxide radicals capturing capacity; type: biochemical; details: pure polyphenols isolated from wood material; per gram
[4] = pure polyphenols; footnote 1: Willför et al., J. Agric. Food. Chem., 51, 7600-7606 (2003); cited from earlier work
[5] = pure polyphenols; footnote 1: Willför et al., J. Agric. Food. Chem, 51. 26 (2003); cited from earlier work

Row | EC50 [2] [µg/mL] | Compound | capturing capacity [3] [mmol/g] | capturing capacity [4] [mmol/g] | EC50 [5] [µg/mL] | other results
1 | – | Cc1cc(C(C)(C)C)c(O)c(C(C)(C)C)c1 [BTH, butylated hydroxytoluene] | – | – | – | times more cytotoxic with respect to HMR extract mixtures ([1]; from Table 1): 50-100 times; EC20 ppm 24 h ([1]; human, 24 h): 5.50 ppm
2 | 0.017 (≈ 0.0472 µM) | COc1cc([C@H]2c3cc(O)c(OC)cc3C[C@@H](CO)[C@@H]2CO)ccc1O [Cyclolariciresinol] | 12 | – | – | –
3 | 0.488 (≈ 1.69 µM) | O=C1c2c(O)cc(O)cc2O[C@H](c2ccc(O)cc2)[C@H]1O [Dihydrokaempferol] | 0.78 | – | – | –
4 | – | COc1cc(C[C@H]2C(=O)OC[C@@H]2[C@H](O)c2ccc(O)c(OC)c2)ccc1O [Hydroxymatairesinol] | – | 5.6 | 0.058 (≈ 0.155 µM) | –
5 | – | COc1cc(C[C@H]2CO[C@H](c3ccc(O)c(OC)c3)[C@H]2CO)ccc1O [Lariciresinol] | – | 2.7 | 0.126 (≈ 0.35 µM) | –
6 | – | COc1cc(C[C@H]2COC(=O)[C@@H]2Cc2ccc(O)c(OC)c2)ccc1O [Matairesinol] | – | 2.9 | 0.099 (≈ 0.276 µM) | –
7 | 0.036 (≈ 0.118 µM) | Oc1ccc([C@H]2Oc3c(ccc(O)c3O)[C@@H](O)[C@H]2O)cc1O [Melacasidine] | 20 | – | – | –
8 | – | COc1cc(CC2COC(=O)C2(O)Cc2ccc(O)c(OC)c2)ccc1O (stereo not shown) [Nortrachelogenin] | – | 5.9 | 0.053 (≈ 0.142 µM) | –
9 | 1.135 (≈ 4.43 µM) | O=C1C[C@@H](c2ccccc2)Oc2cc(O)cc(O)c21 [Pinosembrin] | 0.49 | – | – | –
10 | 0.05 (≈ 0.236 µM) | Oc1cc(O)cc(/C=C/c2ccccc2)c1 [Pinosylvin] | 0.78 | – | – | –
11 | – | COc1cc(C[C@@H](CO)[C@H](CO)Cc2ccc(O)c(OC)c2)ccc1O [Secoisolariciresinol] | – | 8.5 | 0.037 (≈ 0.102 µM) | –
12 | – | O=C1c2c(O)cc(O)cc2O[C@H](c2ccc(O)c(O)c2)[C@H]1O [Taxifolin] | – | 16 | 0.046 (≈ 0.151 µM) | –
13 | 0.05 (≈ 0.172 µM) | Oc1ccc([C@H]2Oc3c(ccc(O)c3O)[C@@H](O)[C@H]2O)cc1 [Teracasidine] | 7.8 | – | – | –

Row | Compound | EC50 [2] [µg/mL] | capturing capacity [3] [mmol/g] | capturing capacity [4] [mmol/g] | EC50 [5] [µg/mL] | other results
14 | Pinoresinol | 0.02 | 7.8 | – | – | –
